Test [1] has as its target T1, rNTS2 receptor (Rattus norvegicus, UniProt Q63384).
T1 construct: expressed in transfected cells
T1 sequence (Q63384 1-416): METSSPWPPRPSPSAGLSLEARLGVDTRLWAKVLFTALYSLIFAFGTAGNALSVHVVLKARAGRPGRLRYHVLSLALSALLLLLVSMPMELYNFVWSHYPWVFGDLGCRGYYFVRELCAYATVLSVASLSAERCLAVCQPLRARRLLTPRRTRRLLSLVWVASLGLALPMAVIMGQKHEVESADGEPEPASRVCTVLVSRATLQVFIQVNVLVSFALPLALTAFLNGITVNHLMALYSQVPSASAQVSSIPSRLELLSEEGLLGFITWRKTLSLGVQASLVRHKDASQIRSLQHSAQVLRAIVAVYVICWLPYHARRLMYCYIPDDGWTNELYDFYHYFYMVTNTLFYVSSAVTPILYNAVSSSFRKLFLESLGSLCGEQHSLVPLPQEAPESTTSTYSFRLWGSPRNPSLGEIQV
In words: Calcium mobilization assay for NTS2 receptor (FLIPR Tetra). Type of test: cell-based. Conditions: for NTS2 Emax % of 5b / EC50: FLIPR assay, ± SEM; for NTS2 Emax % of 5b: calcium release relative to 5b; for EC50: compound induced calcium release, CHO-kl-rNTS2 cells; for activity in NTS2 FLIPR assay: calcium release. As for the experimental part: (§1) The binding affinities of the test compounds for the rNTS1 and rNTS2 receptors listed in Tables 1 through 4 were determined using previously reported competitive binding assays^49. […] The cells used in the binding assay were CHO-kl cells (American Type Culture Collection) engineered to over-express either the rNTS1 or rNTS2 receptor. Measures of functional agonism and antagonism were obtained by measuring changes in intensity of a calcium-sensitive fluorescent dye as an indirect measure of changes in internal calcium concentrations. These measurements were performed using a FLIPR Tetra (NTS2) or a FlexStation II plate reader for NTS1 (Molecular Devices) and were analyzed using GraphPad Prism software.
CHO-kl-rNTS2 cells were maintained in DMEM/F12 supplemented with 10% FBS, pen/strep, 100 μg/ml normocin, and 400 μg/ml geneticin. For calcium mobilization assays, cells were plated at 25,000 cells/well in black, clear-bottom 96-well plates 24 hrs before the assay and incubated at 37° C., 5% CO2. 100 μl reconstituted Calcium 5 dye (Molecular Devices, diluted 1:20 in assay buffer (1×HBSS, 20 mM HEPES, 2.5 mM Probenicid, pH 7.4)) was added per well and plates were incubated for 45 min at 37° C., 5% CO2. […] Full-log serial dilutions of the test compounds were made at 10× the desired final concentration in 1% DMSO assay buffer and warmed to 37° C. After the pre-treatment incubation, fluorescence intensity was measured on a FLIPR Tetra fluorometric imaging plate reader (Molecular Devices). Relative Fluorescence Units (RFUs) were measured every second for 100 seconds (14 readings before compound addition to establish baseline fluorescence, 85 after) Exposure time 0.53 s, Gain=2000, Excitation intensity=30%, Gate open=10%. For antagonist assays, 1/10 volume of 10×concentration of the test compound dilutions in 10% DMSO in assay buffer was added to cells in lieu of the 10% DMSO only in assay buffer for the pre-treatment.
(§2) To determine EC50, IC50, and Ke values, data were fit to a three-parameter logistic equation using GraphPad Prism software. Ki values for radioligand binding assays were determined from ICso values using the equation of Cheng and Prusoff. All data are from at least three independent experiments run in duplicate wells.

Test [2] deals with T1, rNTS2 receptor. In words: 125I-NT competitive binding assay, whole CHO-kl cells over-expressing rNTS2. Conditions: competition with 125I-NT; ± SEM; read-out: 125I-NT Binding NTS2 Ki. As for the experimental part: as §1
Briefly, cells were plated at 100,000 cells/well in 24-well plates in complete DMEM/F12 medium supplemented with 10% fetal bovine serum, 100 units of penicillin/mL, 100 μg of streptomycin/mL, 0.1 mg/mL of normocin, and 250 μg/mL geneticin. Cells were incubated at 37° C. with 5% CO2 and 95% humidity for 48 hrs. […] Cells were washed twice in Earle's buffer, extracted in 1 ml 0.1N NaOH and counted in a Packard Cobra II Gamma Counter for 1 minute.
as §2

For another test, the target named is T2, rNTS1 receptor (Rattus norvegicus, UniProt P20789).
T2 construct: expressed in transfected cells
T2 sequence (P20789 whole entry): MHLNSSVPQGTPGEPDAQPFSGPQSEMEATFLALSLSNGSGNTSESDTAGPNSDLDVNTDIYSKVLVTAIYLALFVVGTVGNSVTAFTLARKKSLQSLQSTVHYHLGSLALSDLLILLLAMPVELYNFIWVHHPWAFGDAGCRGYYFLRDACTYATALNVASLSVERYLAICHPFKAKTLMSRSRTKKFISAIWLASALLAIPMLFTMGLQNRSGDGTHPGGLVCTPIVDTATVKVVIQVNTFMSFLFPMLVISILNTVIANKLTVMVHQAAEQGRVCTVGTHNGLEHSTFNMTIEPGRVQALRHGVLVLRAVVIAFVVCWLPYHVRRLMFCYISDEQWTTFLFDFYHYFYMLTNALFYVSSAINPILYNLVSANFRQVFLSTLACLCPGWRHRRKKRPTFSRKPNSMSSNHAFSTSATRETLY
In words: Calcium mobilization assay for NTS1 receptor (FLIPR assay, FlexStation II). Type of test: cell-based. As to conditions: for Kb: read-out: NTS1 Ke. As for the experimental part: as §1
CHO-kl-rNTS1 cells were maintained in DMEM/F12 medium supplemented with 10% fetal bovine serum (Gibco), 100 U/ml penicillin/100 ug/ml streptomycin, 100 ug/ml normocin (Invivogen), and 250 ug/ml geneticin. For calcium mobilization assays, cells were plated at 30,000 cells/well in black, clear-bottom 96-well plates 24 hrs before the assay and incubated at 37° C., 5% CO2. Prior to the assay, Calcium 5 dye (Molecular Devices) was reconstituted according to manufacturer instructions. The reconstituted dye was diluted 1:40 in assay buffer (lx HBSS, 20 mM HEPES, and 2.5 mM Probenicid (Sigma), pH 7.4). Growth media was removed and 200 ul of this diluted dye was added to each well. Plates were incubated for 45 min at 37° C., 5% CO2 after dye addition. […] Full-log serial dilutions of the test compounds were made at 10× the desired final concentration in 1% DMSO assay buffer and warmed to 37° C. After the pre-treatment incubation, fluorescence intensity was measured on a FlexStation II fluorometric imaging plate reader (Molecular Devices). Relative fluorescence units (RFU) were measured before (20 readings) and after (40 readings) the agonist compound addition for a total 60 second read time (Excitation=485 nm, Emission=525 nm, cutoff=515 nm). For antagonist assays, cells were treated with Calcium dye for 45 min at 37° C., 5% CO2 as with the agonist assays. Then the test antagonist compounds were added in 1% DMSO in assay buffer and the plate was incubated for 15 min at 37° C., 5% CO2.
as §2
Background: Calcium flux is commonly read through the fluorescence of an indicator in the cells.

Setting [3] is: antagonism of NT induced calcium release, ± SEM.

This note sets out measurements from patent publication US20170174633A1 (RESEARCH TRIANGLE INSTITUTE, priority 2014, published 2017).

In general, EC50 refers to the concentration that produces a half-maximal response. What is called Ki is the equilibrium dissociation constant of an inhibitor or competing ligand from its target.

Where “and” joins values, the source holds several entries; their conditions need not be identical. Equal entries are not always repeated.

Turning to `COc1cccc(OC)c1-c1cc(C(=O)NC2(C(=O)O)C3CC4CC(C3)CC2C4)nn1-c1ccnc2cc(Cl)ccc12` (stereo not shown) [5a, Meclinertant, reference compound], the “NTS2 Emax % of 5b” value on rNTS2 receptor [1] was 100 % of 5b and 100 ± 3 % of 5b and 100 ± 15 % of 5b.
For the compound `COc1cccc(OC)c1-c1cc(C(=O)NC2(C(=O)O)C3CC4CC(C3)CC2C4)nn1-c1ccc(C(=O)N(C)CCCN(C)C)cc1C(C)C` (stereo not shown) [5b, reference compound], on rNTS2 receptor [1], the “NTS2 Emax % of 5b” value is recorded as 100 ± 5 % of 5b and the EC50 worked out at 20 nM. In addition, the “EC80 of 5b” value on rNTS2 receptor [1] (final concentration used in IC50 assays) was determined as 73 nM. The inhibition constant Ki on rNTS2 receptor [2] came to 6 nM. Moreover, on rNTS1 receptor (setting [3]), the “NTS1 Ke” value was 1.5 ± 0.6 nM and the Kb was 1.5 nM.
Turning to `COc1cccc(OC)c1-c1cc(C(=O)N[C@H](C(=O)O)C2CCCCC2)nn1-c1ccnc2cc(Cl)ccc12` [14b, (2S)-({[1-(7-Chloroquinolin-4-yl)-5-(2,6-dimethoxyphenyl)-1H-pyrazol-3-yl]carbonyl}amino)-(cyclohexyl)ethanoic Acid], at rNTS2 receptor [1], the “NTS2 Emax % of 5b” value was 86 % of 5b and 86 ± 3 % of 5b; the EC50 stood at 217 ± 19 nM. For the same compound, the Ki at rNTS2 receptor [2] was found to be 644 nM. The Kb on rNTS1 receptor (setting [3]) amounted to 23 ± 6 nM.
Turning to `COc1ccc(OC)c(-c2cc(C(=O)N[C@H](C(=O)O)C3CCCCC3)nn2-c2ccnc3cc(Cl)ccc23)c1` [15b, (2S)-({[1-(7-chloroquinolin-4-yl)-5-(2,5-dimethoxyphenyl)-1H-pyrazol-3-yl]carbonyl}amino) (cyclohexyl)ethanoic acid], at rNTS2 receptor [1], the “NTS2 Emax % of 5b” value is 19 ± 3 % of 5b and the EC50 worked out at 216 ± 29 nM. At rNTS2 receptor [2], the Ki was determined as 604 ± 141 nM. Besides, on rNTS1 receptor (setting [3]), the Kb amounted to 1280 ± 544 nM.
Regarding `COc1ccc(-c2cc(C(=O)N[C@H](C(=O)O)C3CCCCC3)nn2-c2ccnc3cc(Cl)ccc23)c(OC)c1` [16b, (2S)-({[1-(7-Chloroquinolin-4-yl)-5-(2,4-dimethoxyphenyl)-1H-pyrazol-3-yl]carbonyl}-amino)-(cyclohexyl)ethanoic Acid], at rNTS2 receptor [1], the “NTS2 Emax % of 5b” value is recorded as 12 ± 3 % of 5b and the EC50 was determined as 382 ± 33 nM. For the same compound, the Ki on rNTS2 receptor [2] stood at 1580 ± 505 nM.
Take `COc1ccccc1-c1cc(C(=O)N[C@H](C(=O)O)C2CCCCC2)nn1-c1ccnc2cc(Cl)ccc12` [17b, (2S)-({[1-(7-chloroquinolin-4-yl)-5-(2-methoxyphenyl)-1H-pyrazol-3-yl]carbonyl}amino)(cyclohexyl) ethanoic acid]: on rNTS2 receptor [1], the “NTS2 Emax % of 5b” value is 25 ± 2 % of 5b and the EC50 was determined as 258 ± 14 nM. In addition, on rNTS2 receptor [2], the Ki came out at 1420 ± 468 nM. Also, the Kb at rNTS1 receptor (setting [3]) stood at 1680 ± 527 nM.
As to `O=C(N[C@H](C(=O)O)C1CCCCC1)c1cc(-c2c(F)cccc2F)n(-c2ccnc3cc(Cl)ccc23)n1` [18b, (2S)-({[1-(7-Chloroquinolin-4-yl)-5-(2,6-difluorophenyl)-1H-pyrazol-3-yl]carbonyl}amino) (cyclohexyl)ethanoic Acid], on rNTS2 receptor [1], the “NTS2 Emax % of 5b” value is 15 ± 3 % of 5b and the EC50 came out at 166 ± 3 nM. In addition, the inhibitory constant (Ki) at rNTS2 receptor [2] is 1000 ± 227 nM.
In the case of `CCc1c(C(=O)N[C@H](C(=O)O)C2CCCCC2)nn(-c2ccnc3cc(Cl)ccc23)c1-c1c(OC)cccc1OC` [19b, (2S)-({[1-(7-Chloroquinolin-4-yl)-5-(2,6-dimethoxyphenyl)-4-ethyl-1H-pyrazol-3-yl]carbonyl}amino)(cyclohexyl)ethanoic Acid], the “NTS2 Emax % of 5b” value on rNTS2 receptor [1] was 15 % of 5b and 15 ± 1 % of 5b.
Consider `COc1cccc(OC)c1-c1cc(C(=O)NC2(C(=O)O)CCCCCC2)nn1-c1ccnc2cc(Cl)ccc12` [20b, 1-({[1-(7-Chloroquinolin-4-yl)-5-(2,6-dimethoxyphenyl)-1H-pyrazol-3-yl]carbonyl}amino)cyclo-heptanecarboxylic Acid], for which, on rNTS2 receptor [1], the “NTS2 Emax % of 5b” value is 89 ± 5 % of 5b and the EC50 was 21 ± 5 nM. Further, at rNTS2 receptor [2], the inhibitory constant (Ki) came to 170 nM. Further, on rNTS1 receptor (setting [3]), the Kb was found to be 42 ± 6 nM.
In the case of `COc1cccc(OC)c1-c1cc(C(=O)NC2(C(=O)O)CCCCC2)nn1-c1ccnc2cc(Cl)ccc12` [21b, 1-({[1-(7-Chloroquinolin-4-yl)-5-(2,6-dimethoxyphenyl)-1H-pyrazol-3-yl]carbonyl}amino)cyclo-hexanecarboxylic Acid], on rNTS2 receptor [1], the “NTS2 Emax % of 5b” value is 78 % of 5b and 78 ± 7 % of 5b; the half-maximal effective concentration (EC50) amounted to 29 ± 2 nM. Also, on rNTS2 receptor [2], the Ki amounted to 151 nM. For the same compound, the Kb on rNTS1 receptor (setting [3]) was 157 ± 45 nM.
Turning to `COc1cccc(OC)c1-c1cc(C(=O)NC2(C(=O)O)CCCC2)nn1-c1ccnc2cc(Cl)ccc12` [22b, 1-({[1-(7-Chloroquinolin-4-yl)-5-(2,6-dimethoxyphenyl)-1H-pyrazol-3-yl]carbonyl}amino)cyclo-pentanecarboxylic Acid], on rNTS2 receptor [1], the “NTS2 Emax % of 5b” value was 76 ± 4 % of 5b and the EC50 turned out to be 20 ± 4 nM. The Ki on rNTS2 receptor [2] is 102 nM. Further, the Kb on rNTS1 receptor (setting [3]) is 222 ± 14 nM.
Regarding `COc1ccccc1-c1cc(C(=O)NC2(C(=O)O)CCCCC2)nn1-c1ccnc2cc(Cl)ccc12` [23b, 1-({[1-(7-Chloroquinolin-4-yl)-5-(2-methoxyphenyl)-1H-pyrazol-3-yl]carbonyl}amino)cyclohexane carboxylic Acid], at rNTS2 receptor [1], the “NTS2 Emax % of 5b” value was 35 % of 5b and 35 ± 1 % of 5b; the concentration for a half-maximal effect (EC50) came out at 62 ± 9 nM. For the same compound, the inhibition constant (Ki) at rNTS2 receptor [2] amounted to 533 ± 153 nM. Further, the Kb at rNTS1 receptor (setting [3]) came out at 4550 ± 636 nM.
As to `COc1cccc(OC)c1-c1cc(C(=O)N[C@H](C(=O)O)C2CCCCC2)nn1-c1cccc2ccccc12` [24b, (2S)-Cyclohexyl({[5-(2,6-dimethoxyphenyl)-1-naphthalen-1-yl-1H-pyrazol-3-yl]carbonyl}amino)-ethanoic Acid], at rNTS2 receptor [1], the “NTS2 Emax % of 5b” value is 45 % of 5b and 45 ± 1 % of 5b; the EC50 was determined as 159 ± 9 nM. In addition, the Ki at rNTS2 receptor [2] came to 536 ± 20 nM. Further, the Kb on rNTS1 receptor (setting [3]) was 58 ± 6 nM.
As for `CC[C@H](C)[C@H](NC(=O)[C@H](Cc1ccc(O)cc1)NC(=O)[C@@H]1CCCN1C(=O)[C@H](CCCNC(=N)N)NC(=O)[C@@H](N)CCCNC(=N)N)C(=O)N[C@@H](CC(C)C)C(=O)O` [compound 1, Arg-Arg-Pro-Tyr-Ile-Leu, reference compound], the “activity in NTS2 FLIPR assay” value at rNTS2 receptor [1] is recorded as “neither NT nor the NT(8-13) fragment (1) showed any calcium release”.
For `COc1cccc(OC)c1-c1cc(C(=O)NC2C3CC4CC(C3)CC2C4)nn1-c1ccnc2cc(Cl)ccc12` (stereo not shown) [compound 13, 1-(7-chloroquinolin-4-yl)-5-(2,6-dimethoxyphenyl)-N-tricyclo[3.3.1.13,7]dec-2-yl-1H-pyrazole-3-carboxamide], the “activity in NTS2 FLIPR assay” value on rNTS2 receptor [1] was “inactive”. For the same compound, at rNTS1 receptor (agonist and antagonist mode versus NT), the “activity in NTS1 FLIPR assay” value was “inactive”.
